# Paper PMC6149849, “Cymantrenyl-Nucleobases: Synthesis, Anticancer, Antitrypanosomal and Antimicrobial Activity Studies” (Molecules : A Journal of Synthetic Chemistry and Natural …, 2017)
# Like-named read-outs stand apart in the source and are kept apart here.
# What was measured:
# [1] = system: MDA-MB-231 (triple negative breast adenocarcinoma); assay: MTT cytotoxicity assay, MDA-MB-231; assay type: cell-based, human
# Procedure: (§6) Anticancer activity of cymantrenes was determined using a panel of human cancer cell lines that were derived from solid tumors. […] The inhibitory effect of cymantrene derivatives on cell proliferation and growth was determined based on survival curves and was expressed as IC50 values (concentration required to achieve a 50% decrease in cell viability when compared to the viability of untreated control cells) calculated using GraphPad Prism 4.02 software for Windows (GraphPad Software, San Diego, CA, USA). Cell viability was determined by the MTT microplate spectrophotometric cytotoxicity test.
# (§7) The cytotoxicity of cymantrene derivatives was evaluated by the MTT microplate methods as described elsewhere [67] by incubating the cells with increasing concentrations of tested compounds for 24 h. Briefly, 0.1 mL of logarithmically growing cells were seeded in a 96-well microplate (5 × 10^4 cells/well) a day before the experiments and after 24 h of culture, tested compounds, dissolved in DMSO, and diluted in culture medium, were added. […] After further incubation for 24 h, the medium was replaced with fresh medium and the cells were allowed to grow for additional 48 h. Then, the medium was aspirated and 0.05 mL of MTT (final concentration of 5 mg/mL medium) added to each well, and the cells were incubated for further 4 h. The absorbance of the product, resulting from the MTT reduction, was read with a microplate reader at 545 nm. The percentage of viable cells was calculated by comparing the absorbance of treated cells with that of the untreated control cells (taken as 100%). The IC50 concentration of each compound was calculated from the cell survival curves using GraphPad Prism 4.02 software for Windows (GraphPad Software, San Diego, CA, USA).
# [2] = system: SKOV-3 (ovarian adenocarcinoma); assay: MTT cytotoxicity assay, SKOV-3; assay type: cell-based, human
# Procedure: as §6, §7
# [3] = system: MCF-7/DX (estrogen-responsive breast adenocarcinoma resistant to doxorubicin); assay: cells; assay type: cell-based, human
# Procedure: as §7
# U87-MG (glioblastoma) = assay: MTT cytotoxicity assay, U87-MG; assay type: cell-based, human
# Procedure: as §6, §7
# [4] = system: HepG2 (hepatocellular carcinoma); assay: MTT cytotoxicity assay, HepG2; assay type: cell-based, human
# Procedure: as §6, §7
# [5] = system: A549 (non-small cell lung carcinoma); assay: MTT cytotoxicity assay, A549
# Procedure: Anticancer activity of cymantrenes was determined using a panel of human cancer cell lines that were derived from solid tumors. These included cell lines of estrogen-responsive, doxorubicin resistant, and triple negative breast adenocarcinomas (MCF-7, MCF-7/DX, and MDA-MB-231), ovarian adenocarcinoma (SKOV-3), non-small cell lung carcinoma (A549), hepatocellular carcinoma (HepG2), and glioblastoma (U-87 MG). The inhibitory effect of cymantrene derivatives on cell proliferation and growth was determined based on survival curves and was expressed as IC50 values (concentration required to achieve a 50% decrease in cell viability when compared to the viability of untreated control cells) calculated using GraphPad Prism 4.02 software for Windows (GraphPad Software, San Diego, CA, USA). Cell viability was determined by the MTT microplate spectrophotometric cytotoxicity test.
# Anticancer activity of cymantrene derivetives were determined on the basis of their cytotoxic effects on a panel of human cancer cells, as derived from different types of solid tumors: estrogen responsive breast adenocarcinoma (MCF-7), triple negative breast adenocarcinoma (MDA-MB-231), ovarian adenocarcinoma (SKOV-3), non-small cell lung carcinoma (A549), hepatocellular carcinoma (HepG2), and glioblastoma (U-87 MG). Additionally, doxorubicin resistant breast adenocarcinoma cells (MCF-7/Dox) were also included for comparison. All of the cell lines were purchased from American Type Culture Collection (ATCC, Rockville, MD, USA), except the MCF-7/dox cell line, which was a generous gift from Professor Malgorzata Latocha from the Department of Cell Biology, Medical University of Silesia in Katowice, Poland.
# Cells were grown as a monolayer in DMEM growth medium, supplemented with 10% FBS, penicillin (10 U/mL) and streptomycin (50 μg/mL), under standard conditions (37 °C, 5% CO2 and 95% air, 100% humidity) and periodically checked for Mycoplasma contamination.
# The cytotoxicity of cymantrene derivatives was evaluated by the MTT microplate methods as described elsewhere by incubating the cells with increasing concentrations of tested compounds for 24 h. Briefly, 0.1 mL of logarithmically growing cells were seeded in a 96-well microplate (5 × 10^4 cells/well) a day before the experiments and after 24 h of culture, tested compounds, dissolved in DMSO, and diluted in culture medium, were added. […] After further incubation for 24 h, the medium was replaced with fresh medium and the cells were allowed to grow for additional 48 h. Then, the medium was aspirated and 0.05 mL of MTT (final concentration of […] medium) added to each well, and the cells were incubated for further 4 h. The absorbance of the product, resulting from the MTT reduction, was read with a microplate reader at 545 nm. The percentage of viable cells was calculated by comparing the absorbance of treated cells with that of the untreated control cells (taken as 100%). The IC50 concentration of each compound was calculated from the cell survival curves using GraphPad Prism 4.02 software for Windows (GraphPad Software, San Diego, CA, USA).
# [6] = system: MCF-7 (hormone-responsive breast adenocarcinoma); assay: MTT cytotoxicity assay, MCF-7; assay type: cell-based, human
# Procedure: as §6, §7
# SKOV-3 cells [7] = assay: Apoptotic/necrotic cell death, Hoechst 33258/propidium iodide staining, fluorescence microscopy; assay type: cell-based, human; conditions: for increase of apoptotic cells compared to untreated control cells: SKOV-3, 24 h treatment with IC50 concentrations, post-treatment 24 and 48 h
# Procedure: (§1) To determine the mode of cell death that was triggered by cymantrene derivatives, appropriately stained SKOV-3 cells were evaluated for morphological changes using fluorescence microscopy. For evaluation of apoptosis and autophagy, cells were stained with Hoechst 33258/propidium iodide to distinguish between live, apoptotic and necrotic cells and reveal condensed chromatin and apoptotic bodies (a hallmark of apoptosis), and with acridine orange to detect the development of acidic vesicular organelles (AVOs—a hallmark of autophagy).
# (§2) One day prior to the experiments, cells were seeded at the appropriate density into 35 mm diameter dishes. […] At the end of incubation, the medium was aspirated, the cell monolayer was washed twice with pre-warmed PBS, and fresh medium was added. The cells were cultured in drug-free medium for an additional 24 or 48 h to enable them to recover after the exposure to the compounds and to repair any induced damages.
# Quantitative analysis of morphological changes that are associated with apoptosis, necrosis, and autophagy were assessed using a fluorescence microscope (Olympus IX70, Tokyo, Japan) at 400× magnification, as described elsewhere. At the indicated time points, cells were washed with PBS, trypsinized, and centrifuged at 1000 rpm (fixed angle rotor, 72× g) for 5 min at 37 °C. The supernatant was removed and the cell pellet (100 µL) was transferred to the Eppendorf tube, mixed with Ho33258 (2 µL, 0.13 mM) and PI (2 µL, 0.23 mM), and incubated for 5 min in the dark at room temperature. At least 300 stained cells were counted in triplicate in each of the three independent experiments. Cells were classified as live, apoptotic, or necrotic on the basis of their morphological and staining characteristics, and each fraction was related to the total cell number.
# [8] = system: bloodstream forms of T. brucei clone 427-221a; conditions: cited from earlier work
# [9] = system: human myeloid leukemia HL-60 cells; conditions: cited from earlier work
# SKOV-3 cells [10] = assay: Autophagy (acidic vesicular organelles, AVOs), acridine orange staining; assay type: cell-based, human; conditions: SKOV-3, IC50 concentrations 24 h, then 0, 24 or 48 h drug-free
# Procedure: as §1, §2
# The ability of tested compounds to induce autophagosome formation inside cells (the process associated with the induction of autophagy) was evaluated by microscopic examination of the morphology of cells stained with acridine orange (AO).
# [11] = system: E. coli ATCC BAA-198 (ESBL); assay: Antibacterial liquid microdilution (CLSI M07-A8); assay type: cell-based, Escherichia coli; conditions: 18 to 24 h
# Procedure: (§3) Organometallic compounds play an increasingly important role in the search for new antibacterial agents. We, therefore, thought to investigate also the bactericidal activity of the newly synthesized cymantrenes 1–7, compound C and CymH. The antibacterial activity of the compounds was tested against Gram-positive methicillin-sensitive Staphylococcus aureus (MSSA), methicillin-resistant S. aureus (MRSA), vancomycin-intermediate S. aureus (VISA), S. epidermidis, and Gram-negative Escherichia coli bacterial strains, and expressed as minimal inhibitory concentration (MIC) values (Table 3).
# (§4) The antibacterial activity of CymH, 1–7 and C and the reference drugs penicillin G and polymyxin B was tested by the liquid microdilution method under standard conditions using twofold dilution series, as described in the Clinical and Laboratory Standards Institute (CLSI), reference method M07-A8, and expressed as minimal inhibitory concentration (MIC) values. A panel of Gram-positive bacterial strains, S. aureus ATCC® 29213 (sensitive to methicillin, (MSSA)), S. aureus ATCC® 43300 (resistant to methicillin, (MRSA)), S. aureus ATCC 700787™ (intermediate to vancomycin, (VISA)), and S. epidermidis ATCC 12228™, and one Gram-negative, strain E. coli ATCC BAA-198™ (ESBL) were used. In addition, four clinical isolates of S. aureus (MSSA and MRSA) and two clinical isolates of S. epidermidis that were collected from different patients at the Medical University of Warsaw, Poland, were also tested. The bacterial cells were cultivated on tryptic soy agar (TSA) and nutrient agar (NA), according to ATCC recommendations. All of the strains were incubated at 37 °C. Tested compounds were dissolved in DMSO and then serially diluted twofold with cation-adjusted Mueller-Hinton broth (CAMHB). Then, 95 µL of the dilutions were dispensed into microdilution sterile plates (Mar-Four), followed by the addition of 5 µL of bacteria inoculum containing 5 × 10^4 CFU/mL. The final concentrations of the compounds ranged from 512 to 2 µg/mL. Each compound was tested in triplicate, and Penicillin G (8–0.15 µg/mL) and Polymyxin B (256–0.0625 µg/mL) were used as controls. The plates were incubated at 37 °C for 18 to 24 h depending on the bacterial strain. Thereafter, the absorbance was measured at λ = 540 nm and λ = 595 nm using a Spectrostar Omega microplate reader (BMG Labtech, Offenburg, Germany). The MIC value was defined as the lowest concentration of a compound that reduced the growth by 100%.
# [12] = system: bloodstream forms of T. brucei clone 427-221a; assay: Trypanocidal assay, resazurin viability assay; assay type: cell-based, Trypanosoma brucei
# Procedure: (§5) All of the cultures were maintained at 37 °C in a humidified atmosphere containing 5% of CO2. Toxicity assays were performed, as previously described, with some modifications. In brief, trypanosomes and HL-60 cells were seeded at an initial cell density of 10^4/mL and 5 × 10^4/mL, respectively, in 96-well plates in a final volume of 200 μL culture medium containing various concentrations of test compounds dissolved in 100% DMSO. […] The controls contained DMSO alone. In all of the experiments, the final DMSO concentration was 0.9%. After 24 h incubation, 20 µL of a 0.5 mM resazurin solution prepared in PBS was added and the cultures were incubated for a further 48 h. Resazurin is a vital dye that, when being reduced by living cells, changes its colour from blue to pink. Thus, by measuring absorbance, the proliferation of cells can be easily determined. The change in absorbance was read with a microplate reader using a test wavelength of 570 nm and a reference wavelength of 630 nm. GI50 values were calculated by linear interpolation according to the method described by Huber and Koella. MIC values were determined microscopically.
# [13] = system: S. aureus ATCC 29213 (MSSA); assay: Antibacterial liquid microdilution (CLSI M07-A8); assay type: cell-based, Staphylococcus aureus; conditions: 18 to 24 h
# Procedure: as §3, §4
# [14] = system: S. aureus ATCC 43300 (MRSA); assay: Antibacterial liquid microdilution (CLSI M07-A8); assay type: cell-based, Staphylococcus aureus; conditions: 18 to 24 h
# Procedure: as §3, §4
# [15] = system: S. aureus ATCC 700787 (VISA); assay: Antibacterial liquid microdilution (CLSI M07-A8); assay type: cell-based, Staphylococcus aureus; conditions: 18 to 24 h
# Procedure: as §3, §4
# [16] = system: S. epidermidis ATCC 12228; assay: Antibacterial liquid microdilution (CLSI M07-A8); assay type: cell-based, Staphylococcus epidermidis; conditions: 18 to 24 h
# Procedure: as §3, §4
# [17] = system: human myeloid leukemia HL-60 cells; assay: in vitro
# Procedure: as §5
Compound,IC50 [1] [µM],increase of apoptotic cells compared to untreated control cells (SKOV-3 cells [7]),GI50 [8] [µM],T. brucei MIC [8] [µM],IC50 [2] [µM],IC50 (U87-MG (glioblastoma)) [µM],IC50 [4] [µM],GI50 [9] [µM],induction of autophagy (cells containing AVOs) (SKOV-3 cells [10]),IC50 [6] [µM],further results
"COc1cccc2c1C(=O)c1c(O)c3c(c(O)c1C2=O)C[C@@](O)(C(=O)CO)C[C@@H]3O[C@H]1C[C@H](N)[C@H](O)[C@H](C)O1 [DOX, doxorubicin, reference compound]",–,–,–,–,–,–,–,–,–,–,"IC50 ([1]; Homo sapiens, MDA-MB-231, 24 h, read-out: cytotoxicity IC50, MDA-MB-231): 1.07 ± 0.062 µM; IC50 ([2]; Homo sapiens, SK-OV-3, 24 h, read-out: cytotoxicity IC50, SKOV-3): 0.858 ± 0.044 µM; IC50 ([3]; Homo sapiens, MCF7/DX, 24 h, read-out: cytotoxicity IC50, MCF-7/DX): 48.5 ± 2.78 µM; fold less effective against MCF-7/DX cells than MCF-7 cells ([3]; MCF-7/DX vs MCF-7): ~100 fold; IC50 (U87-MG (glioblastoma); Homo sapiens, U-87 MG, 24 h, read-out: cytotoxicity IC50, U87-MG): 0.61 ± 0.029 µM; IC50 ([4]; Homo sapiens, HepG2, 24 h, read-out: cytotoxicity IC50, HepG2): 0.569 ± 0.021 µM; IC50 ([5]; Homo sapiens, A549, 24 h, read-out: cytotoxicity IC50, A549): 0.3 ± 0.018 µM; IC50 ([6]; Homo sapiens, MCF7, 24 h, read-out: cytotoxicity IC50, MCF-7): 0.439 ± 0.026 µM"
Nc1ncnc2c1ncn2CCC(O)[C]12[CH]3[CH]4[CH]5[CH]1[Mn]4532.[C-]#[O+].[C-]#[O+].[C-]#[O+] (racemic) [Compound B],> 150,only a three-fold increase,30.8 ± 3.5,>100,> 150,> 150,> 150,> 100,Less induction of autophagy,> 150,Selectivity GI50 Ratio ([8]; HL-60 / T. brucei): >3.2; IC50 [5]: > 150 µM
"NCCCC(N)(C(=O)O)C(F)F (stereo not shown) [DFMO, difluoromethylornithine, reference compound]",–,–,23.9,>125,–,–,–,–,–,–,–
O=C(CCn1ccc(=O)[nH]c1=O)[C]12[CH]3[CH]4[CH]5[CH]1[Mn]4532.[C-]#[O+].[C-]#[O+].[C-]#[O+] (stereo not shown) [non-fluorinated counterpart],–,–,3.6,100,–,–,–,> 100,–,–,HL-60 MIC [9]: > 100 µM
O=c1[nH]c(=O)n(CCC(O)[C]23[CH]4[CH]5[CH]6[CH]2[Mn]5643)cc1F.[C-]#[O+].[C-]#[O+].[C-]#[O+] (racemic) [Compound 2],> 150,11 fold,–,–,97.5 ± 2.87,100 ± 1.01,> 150,–,greatest autophagic changes,119 ± 2.97,"apoptotic cell fraction predominantly increased (SKOV-3 cells [7]; SKOV-3, IC50 concentrations): late-apoptotic cell fraction; MIC, E. coli ATCC BAA-198 [11]: >512 µg/mL; GI50 ([12]; 50% growth inhibition): > 100 µM; MIC ([12]; concentration at which all cells were killed, determined microscopically): >100 µM; MIC, S. aureus ATCC 29213 (MSSA) [13]: >512 µg/mL; MIC, S. aureus ATCC 43300 (MRSA) [14]: >512 µg/mL; MIC, S. aureus ATCC 700787 (VISA) [15]: >512 µg/mL; MIC, S. epidermidis ATCC 12228 [16]: >512 µg/mL; GI50 [17]: > 100 µM; HL-60 MIC [17]: >100 µM"
